Among the data in patent US8563542B2 (Cyclacel Limited, priority 2007, dated 2013) are IC50 values, retold here.

One assay concerns the target PLK1 (Homo sapiens, UniProt P53350). Nature of the assay: PLK1 protein kinase assay (CDC25C phosphorylation, [γ-32P]-ATP). Format: biochemical. Conditions: read-out: PLK1 IC50.
For a further assay, the target named is T1, AA (Homo sapiens, UniProt O14965).
T1 sequence (O14965 1-403): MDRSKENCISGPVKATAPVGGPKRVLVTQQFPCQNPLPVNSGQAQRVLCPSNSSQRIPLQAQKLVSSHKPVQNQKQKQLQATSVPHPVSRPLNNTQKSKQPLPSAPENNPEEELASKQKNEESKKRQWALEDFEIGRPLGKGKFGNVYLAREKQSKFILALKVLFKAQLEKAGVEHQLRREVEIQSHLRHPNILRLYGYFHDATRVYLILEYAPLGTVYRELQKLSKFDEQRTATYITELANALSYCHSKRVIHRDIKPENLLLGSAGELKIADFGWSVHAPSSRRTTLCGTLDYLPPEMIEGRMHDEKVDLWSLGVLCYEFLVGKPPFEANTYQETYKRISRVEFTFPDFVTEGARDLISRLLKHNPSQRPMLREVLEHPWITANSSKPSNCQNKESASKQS
The experiment in a line: AA IC50 (Table 1; no method given). The assay is classed as biochemical.

Where [1] appears, read: Table 2, PLK1 IC50, class symbols.
Setting [2] is: Table 2, AurA IC50, class symbols, read-out: AurA IC50.

Where two headings read alike, the source gives them in different places.

PLK1, sequence (P53350 whole entry): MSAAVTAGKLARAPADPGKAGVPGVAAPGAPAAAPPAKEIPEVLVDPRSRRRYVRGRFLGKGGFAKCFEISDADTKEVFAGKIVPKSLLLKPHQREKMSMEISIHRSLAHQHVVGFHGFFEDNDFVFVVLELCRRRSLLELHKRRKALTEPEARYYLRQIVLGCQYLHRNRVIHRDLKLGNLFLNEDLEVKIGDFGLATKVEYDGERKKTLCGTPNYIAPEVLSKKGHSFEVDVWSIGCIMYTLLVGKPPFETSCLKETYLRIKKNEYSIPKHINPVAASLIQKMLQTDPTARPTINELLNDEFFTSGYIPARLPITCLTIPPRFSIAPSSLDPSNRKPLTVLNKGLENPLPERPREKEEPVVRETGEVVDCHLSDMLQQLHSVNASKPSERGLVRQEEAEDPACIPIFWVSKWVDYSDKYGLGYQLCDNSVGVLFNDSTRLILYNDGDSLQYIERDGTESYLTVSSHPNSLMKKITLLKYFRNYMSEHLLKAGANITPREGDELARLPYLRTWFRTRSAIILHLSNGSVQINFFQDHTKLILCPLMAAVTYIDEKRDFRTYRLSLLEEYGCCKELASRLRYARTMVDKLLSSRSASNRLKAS

`COc1cc(C(=O)O)ccc1Nc1ncc2c(n1)N(C1CCCC1)CCC(=O)N2C` [compound 1, 4-(9-Cyclopentyl-5-methyl-6-oxo-6,7,8,9-tetrahydro-5H-pyrimido[4,5-b][1,4]diazepin-2-ylamino)-3-methoxy-benzoic acid]: the 50% inhibitory concentration (IC50) – broadly, the concentration that inhibits the measured activity by half – on PLK1 (Table 1) is less than 1 µM; on AA (Table 1, read-out: AA IC50), 1 to 10 µM. For the molecule `CC1CC(=O)Nc2cnc(Nc3ccc(C(=O)O)cc3)nc2N1C1CCCC1` (centres unmarked) [compound 7], the IC50 at PLK1 (Table 1) was less than 1 µM; on AA (Table 1, read-out: AA IC50), 1 to 10 µM. The corresponding values for `CC1CC(=O)N(C)c2cnc(Nc3ccc(C(=O)O)cc3)nc2N1C1CCCC1` (centres unmarked) [compound 8, 4-(9-Cyclopentyl-5,8-dimethyl-6-oxo-6,7,8,9-tetrahydro-5H-pyrimido[4,5-b][1,4]diazepin-2-ylamino)-benzoic acid] are less than 1 µM and less than 0.1 µM. As to `CN1C(=O)CCN(c2ccccc2)c2nc(Nc3ccc(C(=O)O)cc3)ncc21` [compound 15, 4-(5-Methyl-6-oxo-9-phenyl-6,7,8,9-tetrahydro-5H-pyrimido[4,5-b][1,4]diazepin-2-ylamino)-benzoic acid], the half-inhibitory concentration (IC50) on PLK1 (Table 1) is less than 10 µM; on AA (Table 1, read-out: AA IC50), 0.1 to 1 µM. With `CC1CN(C2CCCC2)c2nc(Nc3ccc(C(=O)NC4CCN(C)CC4)cc3)ncc2NC1=O` (centres unmarked) [compound 18, 4-(9-Cyclopentyl-7-methyl-6-oxo-6,7,8,9-tetrahydro-5H-pyrimido[4,5-b][1,4]diazepin-2-ylamino)-N-(1-methyl-piperidin-4-yl)-benzamide], the half-maximal inhibitory concentration (IC50) at PLK1 (Table 1) is less than 10 µM; on AA (Table 1, read-out: AA IC50) it was 1 to 10 µM.

As for `CC1CC(=O)N(C)c2cnc(Nc3ccc(C(=O)NC4CCN(C)CC4)cc3)nc2N1C1CCCC1` (centres unmarked) [compound 37, 4-(9-Cyclopentyl-5,8-dimethyl-6-oxo-6,7,8,9-tetrahydro-5H-pyrimido[4,5-b][1,4]diazepin-2-ylamino)-N-(1-methyl-piperidin-4-yl)-benzamide], the IC50 is less than 1 µM on PLK1 (Table 1) and 0.1 to 1 µM on AA (Table 1, read-out: AA IC50). With `CCC1CN(C2CCCC2)c2nc(Nc3ccc(C(=O)O)cc3)ncc2N(C)C1=O` (centres unmarked) [compound 41, 4-(9-Cyclopentyl-7-ethyl-5-methyl-6-oxo-6,7,8,9-tetrahydro-5H-pyrimido[4,5-b][1,4]diazepin-2-ylamino)-benzoic acid], the half-inhibitory concentration (IC50) at PLK1 (setting [1]) is less than 1 µM; at AA (setting [2]) it was less than 0.1 µM.

`COc1cc(C(=O)NC2CCN(C)CC2)ccc1Nc1ncc2c(n1)N(C(C)(C)C)CCC(=O)N2C` [compound 42, 4-(9-tert-Butyl-5-methyl-6-oxo-6,7,8,9-tetrahydro-5H-pyrimido[4,5-b][1,4]diazepin-2-ylamino)-3-methoxy-N-(1-methyl-piperidin-4-yl)-benzamide]: the half-maximal inhibitory concentration (IC50) on PLK1 (setting [1]) was less than 10 µM; on AA (setting [2]), less than 1 µM. The matching figures for `CN1C(=O)CCN(C2CCCC2)c2nc(Nc3ccc4c(c3)CS(=O)(=O)C4)ncc21` [compound 46, 9-Cyclopentyl-2-(2,2-dioxo-2,3-dihydro-1H-2lambda*6*-benzo[c]thiophen-5-ylamino)-5-methyl-5,7,8,9-tetrahydro-pyrimido[4,5-b][1,4]diazepin-6-one]: less than 10 µM and less than 0.1 µM. For `CN1C(=O)CCN(C2CCCC2)c2nc(Nc3ccc(S(=O)(=O)N4CCOCC4)cc3)ncc21` [compound 47, 9-Cyclopentyl-5-methyl-2-[4-(morpholine-4-sulfonyl)-phenylamino]-5,7,8,9-tetrahydro-pyrimido[4,5-b][1,4]diazepin-6-one], the IC50 was less than 10 µM on PLK1 (setting [1]) and less than 0.1 µM at AA (setting [2]). Regarding `COc1cccc(N2CCC(=O)N(C)c3cnc(Nc4ccc(C(=O)O)cc4)nc32)c1` [compound 49, 4-[9-(3-Methoxy-phenyl)-5-methyl-6-oxo-6,7,8,9-tetrahydro-5H-pyrimido[4,5-b][1,4]diazepin-2-ylamino]-benzoic acid], the IC50 on PLK1 (setting [1]) and at AA (setting [2]) was less than 10 µM throughout. Take `CN1C(=O)CCN(c2ccccc2F)c2nc(Nc3ccc(C(=O)O)cc3)ncc21` [compound 50, 4-[9-(2-Fluoro-phenyl)-5-methyl-6-oxo-6,7,8,9-tetrahydro-5H-pyrimido[4,5-b][1,4]diazepin-2-ylamino]-benzoic acid]: the IC50 on PLK1 (setting [1]) is less than 10 µM; on AA (setting [2]), less than 0.1 µM. As to `CN1C(=O)CCN(C2CCCC2)c2nc(Nc3ccc(N4CCOCC4)cc3)ncc21` [compound 51, 9-Cyclopentyl-5-methyl-2-(4-morpholin-4-yl-phenylamino)-5,7,8,9-tetrahydro-pyrimido[4,5-b][1,4]diazepin-6-one], the 50% inhibitory concentration (IC50) on PLK1 (setting [1]) and on AA (setting [2]) was less than 1 µM throughout. Regarding `CN1C(=O)CCN(c2ccc(N3CCOCC3)cc2)c2nc(Nc3ccc4c(c3)CS(=O)(=O)C4)ncc21` [compound 336, 2-(2,2-Dioxo-2,3-dihydro-1H-2lambda*6*- benzo[c]thiophen-5-ylamino)-5-methyl-9-(4-morpholin-4-yl-phenyl)-5,7,8,9-tetrahydro-pyrimido[4,5-b][1,4]diazepin-6-one], the IC50 at AA (setting [2]) is less than 0.1 µM.

For the molecule `Cc1cc(Nc2ncc3c(n2)N(c2ccc(N4CCOCC4)cc2)CCC(=O)N3C)ccc1NC(=O)C1CC1` [compound 337], the IC50 at AA (setting [2]) was less than 0.1 µM.

For the molecule `CCN1C(=O)CCN(c2ccc(N3CCOCC3)cc2)c2nc(Nc3ccc4c(c3)CS(=O)(=O)C4)ncc21` [compound 338, 2-(2,2-Dioxo-2,3-dihydro-1H-2lambda*6*- benzo[c]thiophen-5-ylamino)-5-ethyl-9-(4-morpholin-4-yl-phenyl)-5,7,8,9-tetrahydro-pyrimido[4,5-b][1,4]diazepin-6-one], the IC50 at AA (setting [2]) is less than 1 µM. On the same count and under the same terms, as for `CN1C(=O)CCN(c2c(F)cccc2F)c2nc(Nc3ccc4c(c3)CS(=O)(=O)C4)ncc21` [compound 339, 9-(2,6-Difluoro-phenyl)-2-(2,2-dioxo-2,3-dihydro-1H-2lambda*6*-benzo[c]thiophen-5-ylamino)-5-methyl-5,7,8,9-tetrahydro-pyrimido[4,5-b][1,4]diazepin-6-one], the figure is less than 0.1 µM; as for `CCN1C(=O)CCN(c2c(F)cccc2F)c2nc(Nc3ccc4c(c3)CS(=O)(=O)C4)ncc21` [compound 340, 9-(2,6-Difluoro-phenyl)-2-(2,2-dioxo-2,3-dihydro-1H-2lambda*6*-benzo[c]thiophen-5-ylamino)-5-ethyl-5,7,8,9-tetrahydro-pyrimido[4,5-b][1,4]diazepin-6-one], less than 1 µM; as for `Cc1cc(Nc2ncc3c(n2)N(c2ccc(C(C)(C)C)cc2)CCC(=O)N3C)ccc1NC(=O)C1CC1` [compound 342], less than 10 µM. For the molecule `COc1ccc(N2CCC(=O)N(C)c3cnc(Nc4ccc(S(=O)(=O)NC(C)=O)cc4)nc32)cc1` [compound 350, N-Acetyl-4-[9-(4-methoxy-phenyl)-5-methyl-6-oxo-6,7,8,9-tetrahydro-5H-pyrimido[4,5-b][1,4]diazepin-2-ylamino]-benzenesulfonamide], on AA (setting [2]), the IC50 was less than 1 µM.

For `CC(=O)NS(=O)(=O)c1ccc(Nc2ncc3c(n2)N(c2c(F)cccc2F)CCC(=O)N3C)cc1` [compound 351, N-Acetyl-4-[9-(2,6-difluoro-phenyl)-5-methyl-6-oxo-6,7,8,9-tetrahydro-5H-pyrimido[4,5-b][1,4]diazepin-2-ylamino]-benzenesulfonamide], on AA (setting [2]), the IC50 is less than 0.1 µM. Regarding `CC(=O)NS(=O)(=O)c1ccc(Nc2ncc3c(n2)N(c2ccc(N4CCOCC4)cc2)CCC(=O)N3C)cc1` [compound 352], at AA (setting [2]), the IC50 was less than 1 µM.
